In patent publication US10744136B2, “Sulfonamide derivatives as JAK inhibitors” (Avista Pharma Solutions, Inc., priority 2018, dated 2020):

Target: T1, JAK1 (Homo sapiens, UniProt P23458)
T1 construct: purchased Thermo Fisher Scientific
Test: Z'-LYTE JAK1 kinase screen (Thermo Fisher Scientific)
Assay type: biochemical
Conditions: 1% DMSO, ATP at Km apparent; for inhibition at 0.01 µM: test compound 10 nM; for inhibition at 0.1 µM: test compound 100 nM; for % Inhibition 1000 nm: test compound 1000 nm (so in the source)
Protocol: The example compounds were screened for Jak1 activity at Thermo Fisher Scientific, using their Z′-Lyte™ protocol, as described below. Selectivity screening against other kinases can be performed following similar procedures. Z′-LYTE Assay Conditions: The Test Compounds are screened in 1% DMSO (final) in the well. Three screening concentrations (10, 100, and 1000 nM) of test compounds were used. Peptide/Kinase Mixtures: All Peptide/Kinase Mixtures are diluted to a 2× working concentration in the appropriate Kinase Buffer (For JAK1, the 2×JAK1/Tyr 06 mixture is prepared in 50 mM HEPES pH 6.5, 0.01% BRIJ-35, 10 mM MgCl2, 1 mM EGTA, 0.02% NaN3. The final 10 μL Kinase Reaction consists of 21.2-91.5 ng JAK1 and 2 μM Tyr 06 in 50 mM HEPES pH 7.0, 0.01% BRIJ-35, 10 mM MgCl2, 1 mM EGTA, 0.01% NaN3. After the 1 hour Kinase Reaction incubation, 5 μL of a 1:128 dilution of Development Reagent A is added). ATP Solution: All ATP Solutions are diluted to a 4× working concentration in Kinase Buffer (50 mM HEPES pH 7.5, 0.01% BRIJ-35, 10 mM MgCl2, 1 mM EGTA). ATP: Km apparent is previously determined using a Z′-LYTE assay. 10× Novel PKC Lipid Mix: 2 mg/ml Phosphatidyl Serine, 0.2 mg/ml DAG in 20 mM HEPES, pH 7.4, 0.3% CHAPS. For 5 mL 10× Novel PKC Lipid Mix: • 1. Add 10 mgs Phosphatidyl Serine (Avanti Polar Lipids Part #8400032C or 840039C) and 1 mg DAG (Avanti Polar Lipids Part #800811C) to a glass tube. • 2. Remove the chloroform from lipid mixture by evaporating to a clear, thin film under a stream of nitrogen. Continuous rotation of the tube, at an angle to ensure maximum surface area of the lipid solution, will promote the thinnest film. • 3. Add 5 mLs resuspension buffer, 20 mM HEPES, 0.3% CHAPS, pH 7.4, to the dried lipid mix • 4. Heat gently to 50-60° C. for 1-2 minutes and vortex in short intervals until the lipids are dissolved to a clear or slightly hazy solution. The lipids are typically in solution after 2-3 heat/vortex cycles. • 5. Cool to room temperature, aliquot into single use volumes and store at −20° C. Assay Protocol Bar-coded Corning, low volume NBS, black 384-well plate (Corning Cat. #4514) • 1. 100 nL—100× Test Compound in 100% DMSO • 2. 2.4 μL—Kinase buffer • 3. 5 μL—2× Peptide/Kinase Mixture • 4. 2.5 μL—4×ATP Solution • 5. 30-second plate shake • 6. 60-minute Kinase Reaction incubation at room temperature • 7. 5 μL—Development Reagent Solution • 8. 30-second plate shake • 9. 60-minute Development Reaction incubation at room temperature • 10. Read on fluorescence plate reader and analyze the data.

T1 sequence (P23458 whole entry): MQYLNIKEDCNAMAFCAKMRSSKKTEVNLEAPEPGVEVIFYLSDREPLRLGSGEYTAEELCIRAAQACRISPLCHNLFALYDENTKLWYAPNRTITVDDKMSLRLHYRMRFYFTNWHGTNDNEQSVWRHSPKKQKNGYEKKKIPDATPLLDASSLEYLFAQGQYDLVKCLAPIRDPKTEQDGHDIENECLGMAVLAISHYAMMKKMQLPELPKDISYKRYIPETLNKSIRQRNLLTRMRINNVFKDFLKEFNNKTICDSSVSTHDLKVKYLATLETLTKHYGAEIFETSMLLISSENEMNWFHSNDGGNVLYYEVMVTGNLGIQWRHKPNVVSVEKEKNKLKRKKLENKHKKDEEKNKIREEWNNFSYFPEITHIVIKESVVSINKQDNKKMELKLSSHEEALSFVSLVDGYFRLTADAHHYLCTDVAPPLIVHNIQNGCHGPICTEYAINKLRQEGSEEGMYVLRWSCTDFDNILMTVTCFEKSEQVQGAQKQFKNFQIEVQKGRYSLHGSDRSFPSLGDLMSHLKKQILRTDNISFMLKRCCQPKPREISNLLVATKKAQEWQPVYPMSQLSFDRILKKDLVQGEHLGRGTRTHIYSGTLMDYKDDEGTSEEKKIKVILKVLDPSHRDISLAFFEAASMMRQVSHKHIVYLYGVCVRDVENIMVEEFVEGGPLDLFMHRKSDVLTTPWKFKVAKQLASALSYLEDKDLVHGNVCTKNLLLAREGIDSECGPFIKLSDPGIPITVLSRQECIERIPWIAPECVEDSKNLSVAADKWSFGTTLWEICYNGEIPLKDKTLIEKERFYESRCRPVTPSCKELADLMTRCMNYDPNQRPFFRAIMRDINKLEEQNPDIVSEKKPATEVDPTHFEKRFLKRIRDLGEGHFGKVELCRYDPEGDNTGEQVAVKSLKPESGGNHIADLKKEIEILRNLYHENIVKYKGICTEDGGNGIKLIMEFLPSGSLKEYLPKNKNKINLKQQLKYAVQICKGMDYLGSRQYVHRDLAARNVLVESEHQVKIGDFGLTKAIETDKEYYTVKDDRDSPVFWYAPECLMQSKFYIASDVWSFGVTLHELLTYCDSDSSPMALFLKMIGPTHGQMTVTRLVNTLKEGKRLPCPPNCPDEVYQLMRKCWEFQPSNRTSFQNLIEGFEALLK

| Structure (SMILES) | inhibition at 0.01 µM [%] | inhibition at 0.1 µM [%] | % Inhibition 1000 nm [%] |
| --- | --- | --- | --- |
| CN(c1ncnc2[nH]ccc12)C1CC2(CC(NS(=O)(=O)CCC(F)(F)F)C2)C1 (centres unmarked) [Compound 21, 3,3,3-trifluoro-N-[2-[methyl(7H-pyrrolo[2,3-d]pyrimidin-4-yl)amino]spiro[3.3]heptan-6-yl]propane-1-sulfonamide] | 46 | 85 | 98 |
| CN(c1ncnc2[nH]ccc12)C1CC2(CC(CNS(C)(=O)=O)C2)C1 (centres unmarked) [Compound 22, N-((6-(methyl(7H-pyrrolo[2,3-d]pyrimidin-4-yl)amino)spiro[3.3]heptan-2-yl)methyl)methanesulfonamide] | 76 | 96 |  |
| CNS(=O)(=O)C1CC2(CC(N(C)c3ncnc4[nH]cnc34)C2)C1 (centres unmarked) [Compound 24, N-methyl-6-[methyl(9H-purin-6-yl)amino]spiro[3.3]heptane-2-sulfonamide] | 4 | 21 | 72 |
| CNS(=O)(=O)C1CC2(CC(N(C)c3ncnc4[nH]ncc34)C2)C1 (centres unmarked) [Compound 25, N-methyl-6-[methyl(1H-pyrazolo[3,4-d]pyrimidin-4-yl)amino]spiro[3.3]heptane-2-sulfonamide] | 2 | 4 | 19 |
| CN(c1ncnc2[nH]ccc12)C1CC2(C1)CC(S(N)(=O)=O)C2 (centres unmarked) [Compound 28, 6-[methyl(7H-pyrrolo[2,3-d]pyrimidin-4-yl)amino]spiro[3.3]heptane-2-sulfonamide] | 13 | 60 | 94 |

The remaining lines, values ahead:

| inhibition at 0.01 µM [%] | inhibition at 0.1 µM [%] | % Inhibition 1000 nm [%] | Structure (SMILES) |
| --- | --- | --- | --- |
| 33 | 82 | 97 | CN(c1ncnc2[nH]ccc12)C1CC2(CC(NS(=O)(=O)C3CCCC3)C2)C1 (centres unmarked) [Compound 20, N-[2-[methyl(7H-pyrrolo[2,3-d]pyrimidin-4-yl)amino]spiro[3.3]heptan-6-yl]cyclopentanesulfonamide] |
| 66 | 94 | 97 | CCS(=O)(=O)NCC1CC2(C1)CC(N(C)c1ncnc3[nH]ccc13)C2 (centres unmarked) [Compound 23, N-((6-(methyl(7H-pyrrolo[2,3-d]pyrimidin-4-yl)amino)spiro[3.3]heptan-2-yl)methyl)ethanesulfonamide] |
| 55 | 92 | 98 | CN(c1ncnc2[nH]ccc12)C1CC2(C1)CC(S(=O)(=O)N(C)C)C2 (centres unmarked) [Compound 29, N,N-dimethyl-6-[methyl(7H-pyrrolo[2,3-d]pyrimidin-4-yl)amino]spiro[3.3]heptane-2-sulfonamide] |
| 43 | 89 | 99 | CN(c1ncnc2[nH]ccc12)C1CC2(C1)CC(S(=O)(=O)N1CCCC1)C2 (centres unmarked) [Compound 30, N-methyl-N-(2-pyrrolidin-1-ylsulfonylspiro[3.3]heptan-6-yl)-7H-pyrrolo[2,3-d]pyrimidin-4-amine] |
